Laboratory results as given in patent publication US8344028B2, “Gamma-amino-butyric acid derivatives as GABAB receptor ligands” (XenoPort, Inc., priority 2009, dated 2013).

Target: GABAB receptor (Homo sapiens, UniProt Q9UBS5)
Test: GABAB receptor agonist or partial agonist activity by binding, electrophysiology, cAMP and/or Ca2+ assay methods (Examples 83-86)
Type: cell-based
Outline: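 Binding: rat cortex membranes in 50 mM Tris pH 7.4 with 100 μM isoguvacine were preincubated 10 min at RT with compound, then radiolabeled CGP54626 (1-10 nM) was added; filtered and scintillation-counted. cAMP: GABAB R1a2 HEK cells, 1 h RT with 100 μM forskolin, chemiluminescence.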

Chain of GABAB receptor (Q9UBS5 20-961): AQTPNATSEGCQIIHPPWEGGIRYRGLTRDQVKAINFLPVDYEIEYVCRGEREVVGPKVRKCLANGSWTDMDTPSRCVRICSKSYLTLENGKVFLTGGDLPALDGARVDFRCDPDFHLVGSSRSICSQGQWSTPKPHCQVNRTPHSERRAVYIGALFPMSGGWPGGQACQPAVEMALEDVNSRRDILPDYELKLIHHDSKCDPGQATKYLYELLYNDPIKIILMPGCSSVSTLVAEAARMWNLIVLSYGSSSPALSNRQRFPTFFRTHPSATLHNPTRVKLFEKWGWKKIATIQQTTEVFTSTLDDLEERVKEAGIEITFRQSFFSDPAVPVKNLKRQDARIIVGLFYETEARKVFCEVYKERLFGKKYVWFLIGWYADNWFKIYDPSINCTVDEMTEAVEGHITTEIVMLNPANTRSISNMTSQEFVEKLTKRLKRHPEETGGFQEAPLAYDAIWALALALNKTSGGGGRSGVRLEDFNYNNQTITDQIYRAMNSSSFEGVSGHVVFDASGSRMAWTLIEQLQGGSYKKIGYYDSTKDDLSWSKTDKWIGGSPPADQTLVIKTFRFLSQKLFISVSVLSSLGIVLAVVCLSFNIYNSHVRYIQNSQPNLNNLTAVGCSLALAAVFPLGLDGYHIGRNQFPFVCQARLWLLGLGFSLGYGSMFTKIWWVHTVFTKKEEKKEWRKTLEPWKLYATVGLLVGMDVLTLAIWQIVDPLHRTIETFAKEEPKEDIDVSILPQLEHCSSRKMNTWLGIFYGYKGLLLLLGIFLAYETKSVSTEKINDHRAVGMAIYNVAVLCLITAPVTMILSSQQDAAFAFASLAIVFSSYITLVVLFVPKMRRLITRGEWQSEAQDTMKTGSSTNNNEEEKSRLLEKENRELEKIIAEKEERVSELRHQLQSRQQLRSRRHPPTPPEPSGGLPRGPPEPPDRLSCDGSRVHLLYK
Chain of GABAB receptor (O75899 42-941 partner): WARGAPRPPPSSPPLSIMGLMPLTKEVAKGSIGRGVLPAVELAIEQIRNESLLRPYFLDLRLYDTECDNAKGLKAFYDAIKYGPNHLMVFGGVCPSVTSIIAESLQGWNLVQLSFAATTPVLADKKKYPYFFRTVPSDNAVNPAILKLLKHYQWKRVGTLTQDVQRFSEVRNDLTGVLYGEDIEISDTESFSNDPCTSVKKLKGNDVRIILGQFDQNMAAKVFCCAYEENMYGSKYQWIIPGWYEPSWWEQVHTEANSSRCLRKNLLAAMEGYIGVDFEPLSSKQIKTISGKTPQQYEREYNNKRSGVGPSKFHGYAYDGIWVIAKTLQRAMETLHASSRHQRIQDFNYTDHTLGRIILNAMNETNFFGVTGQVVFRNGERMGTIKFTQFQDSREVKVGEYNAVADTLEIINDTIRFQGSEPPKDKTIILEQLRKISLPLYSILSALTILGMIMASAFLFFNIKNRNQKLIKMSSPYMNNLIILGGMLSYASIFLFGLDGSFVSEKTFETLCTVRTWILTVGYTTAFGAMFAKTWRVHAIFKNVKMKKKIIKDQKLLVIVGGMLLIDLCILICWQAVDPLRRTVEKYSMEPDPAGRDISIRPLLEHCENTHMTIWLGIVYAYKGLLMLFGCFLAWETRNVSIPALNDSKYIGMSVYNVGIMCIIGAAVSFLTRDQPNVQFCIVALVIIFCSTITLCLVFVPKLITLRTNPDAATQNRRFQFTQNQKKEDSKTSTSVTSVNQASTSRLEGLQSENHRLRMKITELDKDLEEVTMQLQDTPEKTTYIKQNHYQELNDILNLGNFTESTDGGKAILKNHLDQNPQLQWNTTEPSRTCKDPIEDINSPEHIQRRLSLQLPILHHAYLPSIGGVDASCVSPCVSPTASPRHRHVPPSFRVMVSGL

Cl.NC[C@H](CC(=O)O)c1ccc(Cl)c(OCc2ccncc2)c1 [Example 68, (3R)-4-Amino-3-[4-chloro-3-(4-pyridylmethoxy)phenyl]butanoic acid hydrochloride]
GABAB receptor agonist or partial agonist activity: agonist or partial agonist activity
